# Results: US20190233884A1 (University of Southern California, priority 2016, published 2019)
# Test system: patients with refractory metastatic colorectal cancer (mCRC)
# Assay: PFS, OS and disease control in the testing (validation) cohort of refractory mCRC patients receiving TAS-102 (n=129, Italy), by baseline characteristics, SNP genotype and toxicity
# Assay type: in vivo, human
# Details: validation cohort
# Procedure: All patients underwent the treatment in salvage-line setting. […]
# (§1) Genomic DNA was extracted from peripheral whole blood in patients of all cohorts using the QIAmp Kit (Qiagen, Valencia, Calif., USA) according to the manufacturer's protocol (www.qiagen.com). The candidate SNPs were genotyped using PCR-based direct DNA sequence analysis by ABI 3100A Capillary Genetic Analyzer and Sequencing Scanner v1.0 (Applied Biosystems). Amplification of extracted DNA was carried out using both forward and reverse primers for each gene polymorphism as shown in Table 1. […] The investigators analyzing SNPs were blinded to the clinical data of the study patients.
# The primary endpoint in this study was progression-free survival (PFS), and the secondary endpoints were overall survival (OS) and disease control rate (DCR). PFS was calculated from the date of starting treatment to the first observation of disease progression or death from any cause. If a patient had no disease progression or death, PFS was censored at the date of last follow up. OS was calculated from the date of starting treatment until the date of death from any cause or the date of the last follow-up, at which point OS was censored. The disease control rate (DCR) was defined as the proportion of patients who achieved a stable disease (SD) or […] according to RECISTv1.1. Chi-square test was used to examine the difference in baseline patient characteristics among the three cohorts. Allelic distribution of all SNPs by ethnicity for deviation from Hardy-Weinberg equilibrium and the allelic frequencies of SNPs were tested using the Chi-square tests with one degree of freedom. The associations between candidate SNPs and disease control, and toxicities were examined using contingency tables and Fisher's exact test. The associations of SNPs with PFS and OS were analysed using Kaplan-Meier curves and the log-rank test. Because the true mode of inheritance of candidate SNPs was not established yet, a codominant or dominant genetic model if appropriate was considered.
# All patients underwent the treatment in salvage-line setting. […] In all patients, adverse events were graded according to the Common Terminology Criteria for Adverse Events, version 4.0. […]
# as §1, with “tested” for “genotyped”, “Biosystems).” for “Biosystems). Amplification of extracted DNA was carried out using both forward and reverse primers for each gene polymorphism as shown in Table 1.”, “data.” for “data of the study patients.”
# The primary endpoint in this study was progression-free survival (PFS), and the secondary endpoints were overall survival (OS) and disease control rate (DCR).
# [1] = ATM rs609429 C/G vs C/C (Ref.), multivariable
# [2] = ATM rs609429 C/G vs C/C (Ref.), univariate
# [3] = ATM rs609429 G/G vs C/C (Ref.), multivariable
# [4] = ATM rs609429 G/G vs C/C (Ref.), univariate
# [5] = Adjuvant Oxa No vs Yes (Ref.), univariate
# [6] = Adjuvant history No vs Yes (Ref.), univariate
# [7] = Age group ≥61 vs <61 (Ref.), univariate
# [8] = BRAF status Mutant vs Wild type (Ref.), univariate
# [9] = CHEK2 rs2267130 Any C vs T/T (Ref.), multivariable
# [10] = CHEK2 rs2267130 Any C vs T/T (Ref.), univariate
# [11] = CHEK2 rs2267130 C/C vs T/T (Ref.), multivariable
# [12] = CHEK2 rs2267130 C/C vs T/T (Ref.), univariate
# [13] = CHEK2 rs2267130 T/C vs T/T (Ref.), multivariable
# [14] = CHEK2 rs2267130 T/C vs T/T (Ref.), univariate
# [15] = Grading 3 vs 1-2 (Ref.), univariate
# [16] = LN metastasis No vs Yes (Ref.), univariate
# [17] = Liver metastasis No vs Yes (Ref.), univariate
# [18] = Lung metastasis No vs Yes (Ref.), univariate
# [19] = Mucinous histology No vs Yes (Ref.), univariate
# [20] = Number of metastases >2 vs ≤2 (Ref.), univariate
substance,measurement,setting,value
Trifluridine/tipiracil [TAS-102],"Disease Control CR/PR/SD, patients n (%)",ATM rs609429 C/G,20 (32%)
same,Median PFS (95% CI),ATM rs609429 C/G,"2.0 (1.9, 2.3) months"
same,"PD, patients n (%)",ATM rs609429 C/G,43 (68%)
same,HR OS (95% CI),[1],"0.71 (0.39, 1.30)"
same,HR PFS (95% CI),[1],"0.77 (0.50, 1.20)"
same,HR OS (95% CI),[2],"0.71 (0.40, 1.26)"
same,HR PFS (95% CI),[2],"0.76 (0.50, 1.16)"
same,"Disease Control CR/PR/SD, patients n (%)",ATM rs609429 G/G,6 (40%)
same,Median OS (95% CI),ATM rs609429 G/G,"5.8 (2.7, 7.1+) months"
same,Median PFS (95% CI),ATM rs609429 G/G,"2.0 (1.2, 6.1) months"
same,"PD, patients n (%)",ATM rs609429 G/G,9 (60%)
same,HR OS (95% CI),[3],"1.43 (0.56, 3.65)"
same,HR PFS (95% CI),[3],"1.32 (0.67, 2.59)"
same,HR OS (95% CI),[4],"0.82 (0.34, 2.00)"
same,HR PFS (95% CI),[4],"0.85 (0.45, 1.63)"
same,Median OS,Adjuvant Oxa No,5.8 months
same,Median PFS,Adjuvant Oxa No,1.9 months
same,HR OS,[5],1.17
same,HR PFS,[5],1.06
same,Median OS,Adjuvant Oxa Yes,8.5+ months
same,Median PFS,Adjuvant Oxa Yes,2.0 months
same,Median OS,Adjuvant history No,5.5 months
same,Median PFS,Adjuvant history No,1.9 months
same,HR OS,[6],1.23
same,HR PFS,[6],1.25
same,Median OS,Adjuvant history Yes,8.5+ months
same,Median PFS,Adjuvant history Yes,2.0 months
same,Median OS,Age group <61,4.4 months
same,Median PFS,Age group <61,1.9 months
same,Median OS,Age group ≥61,9.0 months
same,Median PFS,Age group ≥61,2.0 months
same,HR OS,[7],0.56
same,HR PFS,[7],0.61
same,Median OS,BRAF status Mutant,3.3 months
same,Median PFS,BRAF status Mutant,1.8 months
same,HR OS,[8],2.38
same,HR PFS,[8],1.40
same,Median OS,BRAF status Wild type,5.8 months
same,Median PFS,BRAF status Wild type,2.0 months
same,"Disease Control CR/PR/SD, patients n (%)",CHEK2 rs2267130 Any C,29 (31%)
same,Median OS (95% CI),CHEK2 rs2267130 Any C,"5.5 (4.4, 8.7+) months"
same,Median PFS (95% CI),CHEK2 rs2267130 Any C,"2.0 (1.8, 2.3) months"
same,"PD, patients n (%)",CHEK2 rs2267130 Any C,65 (69%)
same,HR OS (95% CI),[9],"0.70 (0.38, 1.30)"
same,HR PFS (95% CI),[9],"1.05 (0.66, 1.67)"
same,HR OS (95% CI),[10],"0.94 (0.52, 1.69)"
same,HR PFS (95% CI),[10],"1.10 (0.71, 1.72)"
same,"Disease Control CR/PR/SD, patients n (%)",CHEK2 rs2267130 C/C,9 (29%)
same,Median OS (95% CI),CHEK2 rs2267130 C/C,"5.4 (3.9, 7.1+) months"
same,Median PFS (95% CI),CHEK2 rs2267130 C/C,"2.0 (1.8, 2.4) months"
same,"PD, patients n (%)",CHEK2 rs2267130 C/C,22 (71%)
same,HR OS (95% CI),[11],"0.48 (0.21, 1.09)"
same,HR PFS (95% CI),[11],"0.87 (0.49, 1.54)"
same,HR OS (95% CI),[12],"0.95 (0.45, 2.00)"
same,HR PFS (95% CI),[12],"1.08 (0.62, 1.86)"
same,"Disease Control CR/PR/SD, patients n (%)",CHEK2 rs2267130 T/C,20 (32%)
same,Median PFS (95% CI),CHEK2 rs2267130 T/C,"2.0 (1.7, 2.3) months"
same,"PD, patients n (%)",CHEK2 rs2267130 T/C,43 (68%)
same,HR OS (95% CI),[13],"0.83 (0.44, 1.58)"
same,HR PFS (95% CI),[13],"1.17 (0.72, 1.91)"
same,HR OS (95% CI),[14],"0.93 (0.50, 1.75)"
same,HR PFS (95% CI),[14],"1.12 (0.69, 1.79)"
same,"Disease Control CR/PR/SD, patients n (%)",CHEK2 rs2267130 T/T,8 (24%)
same,Median OS (95% CI),CHEK2 rs2267130 T/T,"5.8 (3.7, 9.0+) months"
same,Median PFS (95% CI),CHEK2 rs2267130 T/T,"1.9 (1.9, 2.0) months"
same,"PD, patients n (%)",CHEK2 rs2267130 T/T,26 (76%)
same,Median OS,Grading 1-2,9.0 months
same,Median PFS,Grading 1-2,2.1 months
same,Median OS,Grading 3,5.3 months
same,Median PFS,Grading 3,1.9 months
same,HR OS,[15],1.38
same,HR PFS,[15],1.15
same,Median OS,LN metastasis No,5.4 months
same,Median PFS,LN metastasis No,2.0 months
same,HR OS,[16],1.24
same,HR PFS,[16],0.99
same,Median OS,LN metastasis Yes,8.8+ months
same,Median PFS,LN metastasis Yes,2.0 months
same,Median OS,Liver metastasis No,8.7+ months
same,Median PFS,Liver metastasis No,2.4 months
same,HR OS,[17],0.69
same,HR PFS,[17],0.52
same,Median OS,Liver metastasis Yes,5.4 months
same,Median PFS,Liver metastasis Yes,1.9 months
same,Median OS,Lung metastasis No,4.1 months
same,Median PFS,Lung metastasis No,1.9 months
same,HR OS,[18],1.46
same,HR PFS,[18],1.62
same,Median OS,Lung metastasis Yes,8.8+ months
same,Median PFS,Lung metastasis Yes,2.1 months
same,Median OS,Mucinous histology No,9.0 months
same,Median PFS,Mucinous histology No,2.0 months
same,HR OS,[19],0.72
same,HR PFS,[19],0.97
same,Median OS,Mucinous histology Yes,5.5 months
same,Median PFS,Mucinous histology Yes,1.9 months
same,Median OS,Number of metastases >2,8.8+ months
same,Median PFS,Number of metastases >2,2.0 months
same,HR OS,[20],0.83
same,HR PFS,[20],1.18
same,Median OS,Number of metastases ≤2,5.5 months
same,Median PFS,Number of metastases ≤2,2.0 months
same,Median OS,Performance status ECOG 0,9.0 months
same,Median PFS,Performance status ECOG 0,2.0 months
same,Median OS,Performance status ECOG 1+,4.1 months
same,Median PFS,Performance status ECOG 1+,1.9 months
